Measured values taken from patent US12528792B2, “Sulfonamide compounds and the use thereof in the treatment of cancer” (TROBIO THERAPEUTICS PTY LTD, priority 2019, dated 2026).

How the values were obtained:
Format in all cases: cell-based
[1] = system: A2780 (ovarian) cells; test: Anti-proliferative activity, Cell-Titre luminescent viability assay; conditions: Homo sapiens, 72 h exposure, Cell-Titre luminescent reagent
Procedure: (§1) The ability of compounds of the disclosure to inhibit the proliferation of cancer cells representative of non-small cell lung cancer and ovarian cancer (Table 1), and pancreatic cancer, colorectal cancer and prostate cancer (Table 2) was assessed. Briefly, a predetermined number of cells as calculated from cell growth assays for each of the cell lines employed were seeded into their respective culture medium (using ATCC culture parameters—http://www.atcc.org) and cultured for 24 h at 37° C. and 5% CO2 in 96-well culture plates. Once attached, each cell line was then exposed to various concentrations of each respective analogue (100, 30, 10, 3, 1 and 0.3 µM or 30, 10, 3, 1, 0.3 and 0.1 μM), cultured for a further 72 h and exposed to Cell-Titre luminescent reagent (100 μL/well) for a further 30 min. Luminescence was captured using an EnVision multilabel reader and the data for each analogue concentration compared against no treatment control. Cell viability was normalised to control (vehicle alone) and dose response curves, and half maximal effective concentration (EC50) values were determined using Graph Pad Prism 6 (nonlinear regression sigmoidal dose-response variable slope).

[2] = system: A549 (NSCLC) cells; test: as above; conditions: Homo sapiens, 72 h exposure, Cell-Titre luminescent reagent
Procedure: as §1

[3] = system: SK-N-SH neuroblastoma cells; test: Cytotoxicity assay, MTS viability; conditions: Homo sapiens, 72 hours
Procedure: The ability of compounds of the disclosure to inhibit the proliferation of SK—N—SH neuroblastoma cells was assessed. The SK—N—SH cell line was maintained as a monolayer in Dulbeccos Modified Eagles medium (DMEM) supplemented with 10% foetal bovine serum (FBS) and grown at 37° C. in a humidified atmosphere with 5% CO2. For the cytotoxicity assay, SK—N—SH cells were seeded at a density of 2×10^3 cells per well in 96-well plates. The cells were treated with serial dilutions of the test compounds (1:2 starting concentration 100 µM) and viability measured after 72 hours using a standard MTS assay. Cell viability was normalised to control (vehicle alone) and dose response curves and EC50 values (Table 3) were determined using Graph Pad Prism 6.

IC50 [1]	IC50 [2]	SMILES	IC50 [3]
7.49 µM	9.28 µM	O=C(Nc1ccc(Cl)c(Cl)c1)c1ccn(S(=O)(=O)c2ccc3[nH]ccc3c2)c1 [Compound 71, 1-((1H-indol-5-yl)sulfonyl)-N-(3,4-dichlorophenyl)-1H-pyrrole-3-carboxamide]	8.9 µM
8.31 µM	10.7 µM	CCCc1ccc(NC(=O)c2ccn(S(=O)(=O)c3ccc4[nH]ccc4c3)c2)cc1F [Compound 97, 1-((1H-indol-5-yl)sulfonyl)-N-(3-fluoro-4-propylphenyl)-1H-pyrrole-3-carboxamide]	
4.53 µM	5.17 µM	CC(C)(C)c1ccc(NC(=O)c2ccn(S(=O)(=O)c3ccc4[nH]ccc4c3)c2)cc1F [Compound 101, 1-((1H-indol-5-yl)sulfonyl)-N-(4-(tert-butyl)-3-fluorophenyl)-1H-pyrrole-3-carboxamide]	
8.81 µM	5.11 µM	CC(C)Cc1ccc(NC(=O)c2ccn(S(=O)(=O)c3ccc4[nH]ccc4c3)n2)cc1F [Compound 112, 1-((1H-indol-5-yl)sulfonyl)-N-(3-fluoro-4-isobutylphenyl)-1H-pyrazole-3-carboxamide]	
13.6 µM	15.9 µM	O=C(Nc1ccc(Cl)cc1)c1ccn(S(=O)(=O)c2ccc3[nH]ccc3c2)c1 [Compound 66, 1-((1H-indol-5-yl)sulfonyl)-N-(4-chlorophenyl)-1H-pyrrole-3-carboxamide]	
> 30 µM	> 30 µM	CC(C)c1ccccc1NC(=O)c1ccn(S(=O)(=O)c2ccc3[nH]ccc3c2)c1 [Compound 39, 1-((1H-indol-5-yl)sulfonyl)-N-(2-isopropylphenyl)-1H-pyrrole-3-carboxamide]	
4.32 µM	7.92 µM	CCC(C)c1ccc(NC(=O)c2ccn(S(=O)(=O)c3ccc4[nH]ccc4c3)c2)cc1F (stereo not shown) [Compound 94, 1-((1H-indol-5-yl)sulfonyl)-N-(4-(sec-butyl)-3-fluorophenyl)-1H-pyrrole-3-carboxamide]	
> 30 µM	13.4 µM	COc1ccc(NC(=O)c2ccn(S(=O)(=O)c3ccc4[nH]ccc4c3)n2)cc1F [Compound 116, 1-((1H-indol-5-yl)sulfonyl)-N-(3-fluoro-4-methoxyphenyl)-1H-pyrazole-3-carboxamide]	
11.8 µM	10.7 µM	Cc1cc(C)cc(NC(=O)c2ccn(S(=O)(=O)c3ccc4[nH]ccc4c3)c2)c1 [Compound 52, 1-((1H-indol-5-yl)sulfonyl)-N-(3,5-dimethylphenyl)-1H-pyrrole-3-carboxamide]	
8.92 µM	> 30 µM	O=C(Nc1ccc2c(c1)OCO2)c1ccn(S(=O)(=O)c2ccc3[nH]ccc3c2)c1 [Compound 104, 1-((1H-indol-5-yl)sulfonyl)-N-(benzo[d][1,3]dioxol-5-yl)-1H-pyrrole-3-carboxamide]	
7.5 µM	8.06 µM	CCCc1ccc(NC(=O)c2ccn(S(=O)(=O)c3ccc4[nH]ccc4c3)n2)cc1F [Compound 110, 1-((1H-indol-5-yl)sulfonyl)-N-(3-fluoro-4-propylphenyl)-1H-pyrazole-3-carboxamide]	
9.85 µM	5.44 µM	CCC(C)c1ccc(NC(=O)c2ccn(S(=O)(=O)c3ccc4[nH]ccc4c3)n2)cc1F (stereo not shown) [Compound 106, 1-((1H-indol-5-yl)sulfonyl)-N-(4-(sec-butyl)-3-fluorophenyl)-1H-pyrazole-3-carboxamide]	
13.4 µM	9.8 µM	CCc1ccccc1NC(=O)c1ccn(S(=O)(=O)c2ccc3[nH]ccc3c2)c1 [Compound 42, 1-((1H-indol-5-yl)sulfonyl)-N-(2-ethylphenyl)-1H-pyrrole-3-carboxamide]	
8.2 µM	13.1 µM	O=C(Nc1cc(F)cc(F)c1)c1ccn(S(=O)(=O)c2ccc3[nH]ccc3c2)c1 [Compound 54, 1-((1H-indol-5-yl)sulfonyl)-N-(3,5-difluorophenyl)-1H-pyrrole-3-carboxamide]	
10.5 µM	5.93 µM	CC(C)(C)c1ccc(NC(=O)c2ccn(S(=O)(=O)c3ccc4[nH]ccc4c3)n2)cc1F [Compound 114, 1-((1H-indol-5-yl)sulfonyl)-N-(4-(tert-butyl)-3-fluorophenyl)-1H-pyrazole-3-carboxamide]	

Continued, compound first:

SMILES	IC50 [1]	IC50 [2]	IC50 [3]
CC(C)(C)c1ccc(S(=O)(=O)n2ccc(C(=O)Nc3ccc(C(F)(F)F)cc3)c2)cc1 [Compound 93, 1-((4-(tert-butyl)phenyl)sulfonyl)-N-(4-(trifluoromethyl)phenyl)-1H-pyrrole-3-carboxamide]	3.2 µM	12.8 µM	18.2 µM
CCC(C)c1ccc(NC(=O)C2CCN(S(=O)(=O)c3ccn(C)c3)CC2)cc1 (stereo not shown) [Compound 28, N-(4-(sec-butyl)phenyl)-1-((1-methyl-1H-pyrrol-3-yl)sulfonyl)piperidine-4-carboxamide]	24.7 µM	13 µM	11.7 µM
Cn1cc(S(=O)(=O)N2CCC(C(=O)Nc3ccc(C(F)(F)F)cc3)CC2)cc1C(N)=O [Compound 2, 1-((5-carbamoyl-1-methyl-1H-pyrrol-3-yl)sulfonyl)-N-(4-(trifluoromethyl)phenyl)piperidine-4-carboxamide]	13.9 µM	33.7 µM	26.4 µM
O=C(Nc1ccc(Cl)c(Cl)c1)c1ccn(S(=O)(=O)c2ccc3[nH]ccc3c2)n1 [Compound 83, 1-((1H-indol-5-yl)sulfonyl)-N-(3,4-dichlorophenyl)-1H-pyrazole-3-carboxamide]	9.31 µM	14.3 µM	13.1 µM
Cc1ccc(NC(=O)N2CCN(S(=O)(=O)c3cc(C(N)=O)n(C)c3)CC2)cc1O [Compound 10, 4-((5-carbamoyl-1-methyl-1H-pyrrol-3-yl)sulfonyl)-N-(3-hydroxy-4-methylphenyl)piperazine-1-carboxamide]	> 100 µM	> 100 µM	
O=C(Nc1ccc(Cl)nc1)c1ccn(S(=O)(=O)c2ccc3[nH]ccc3c2)n1 [Compound 87, 1-((1H-indol-5-yl)sulfonyl)-N-(6-chloropyridin-3-yl)-1H-pyrazole-3-carboxamide]	≥ 30 µM	> 30 µM	
Cc1ccccc1NC(=O)C1CCN(S(=O)(=O)c2ccc3[nH]ccc3c2)CC1 [Compound 62, 1-((1H-indol-5-yl)sulfonyl)-N-(o-tolyl)piperidine-4-carboxamide]	> 30 µM	> 30 µM	
CCC(C)c1ccc(CCNC(=O)c2ccn(S(=O)(=O)c3ccc(C(C)(C)C)cc3)c2)cc1 (stereo not shown) [Compound 88, N-(4-(sec-butyl)phenethyl)-1-((4-(tert-butyl)phenyl)sulfonyl)-1H-pyrrole-3-carboxamide]	> 30 µM	> 30 µM	
CC(C)(C)c1ccc(S(=O)(=O)n2ccc(C(=O)NCCc3ccc(C(F)(F)F)cc3)c2)cc1 [Compound 90, 1-((4-(tert-butyl)phenyl)sulfonyl)-N-(4-(trifluoromethyl)phenethyl)-1H-pyrrole-3-carboxamide]	> 30 µM	> 30 µM	
O=C(Nc1ccc(F)cn1)c1ccn(S(=O)(=O)c2ccc3[nH]ccc3c2)n1 [Compound 84, 1-((1H-indol-5-yl)sulfonyl)-N-(5-fluoropyridin-2-yl)-1H-pyrazole-3-carboxamide]	> 30 µM	> 30 µM	
Cn1cc(S(=O)(=O)n2ccc(C(=O)Nc3ccc(C(F)(F)F)cc3)c2)cc1C(N)=O [Compound 20, 1-methyl-4-((3-((4-(trifluoromethyl)phenyl)carbamoyl)-1H-pyrrol-1-yl)sulfonyl)-1H-pyrrole-2-carboxamide]	24.7 µM	> 100 µM	
CNC(=O)C1CCN(S(=O)(=O)c2cc(C(N)=O)n(C)c2)CC1 [Compound 32, 1-((5-carbamoyl-1-methyl-1H-pyrrol-3-yl)sulfonyl)-N-methylpiperidine-4-carboxamide]	> 100 µM	> 100 µM	
Cc1ccc(NC(=O)C2CCN(S(=O)(=O)c3ccc4c(c3)CCN4)CC2)cc1O [Compound 4, N-(3-hydroxy-4-methylphenyl)-1-(indolin-5-ylsulfonyl)piperidine-4-carboxamide]	> 100 µM	> 100 µM	
CCC(C)c1ccc(NC(=O)N2CCN(S(=O)(=O)c3cc(C(N)=O)n(C)c3)CC2)cc1 (stereo not shown) [Compound 9, N-(4-(sec-butyl)phenyl)-4-((5-carbamoyl-1-methyl-1H-pyrrol-3-yl)sulfonyl)piperazine-1-carboxamide]	> 100 µM	> 100 µM	
Cc1ccc(NC(=O)N2CCN(S(=O)(=O)c3ccc4c(c3)CCN4)CC2)cc1O [Compound 13, N-(3-hydroxy-4-methylphenyl)-4-(indolin-5-ylsulfonyl)piperazine-1-carboxamide]	> 100 µM	> 100 µM	
Cn1cc(S(=O)(=O)N2CCC(C(=O)NC3CCCCC3)CC2)cc1C(N)=O [Compound 31, 1-((5-carbamoyl-1-methyl-1H-pyrrol-3-yl)sulfonyl)-N-cyclohexylpiperidine-4-carboxamide]	> 100 µM	> 100 µM	
